Experimental data from PubChem BioAssay (NCI).
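Briefly, cells in 96-well plates were exposed to five compound concentrations for 48 h, and endpoints were estimated by linear interpolation. TGI is the concentration that stops growth completely.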

Columns and labels:
Experiment in all cases: NCI anticancer screen, dose series, 48 h
[1] = system: 786-0 renal
[2] = system: A498 renal
[3] = system: A549 NSCLC
[4] = system: ACHN renal
[5] = system: BT-549 breast
[6] = system: CAKI-1 renal
[7] = system: CCRF-CEM leukemia
[8] = system: COLO 205 colon
[9] = system: DU-145 prostate
[10] = system: EKVX NSCLC
[11] = system: HCC-2998 colon
[12] = system: HCT-116 colon
[13] = system: HCT-15 colon
[14] = system: HL-60(TB) leukemia
[15] = system: HOP-62 NSCLC
[16] = system: HOP-92 NSCLC
[17] = system: HT29 colon
[18] = system: IGROV1 ovarian
[19] = system: K-562 leukemia
[20] = system: KM12 colon
[21] = system: LOX IMVI melanoma
[22] = system: M14 melanoma
[23] = system: MALME-3M melanoma
[24] = system: MCF7 breast
[25] = system: MDA-MB-231 breast
[26] = system: MDA-MB-435
[27] = system: MDA-N
[28] = system: MOLT-4 leukemia
[29] = system: NCI-H226 lung
[30] = system: NCI-H23 lung
[31] = system: NCI-H460 lung
[32] = system: NCI/ADR-RES ovarian
[33] = system: OVCAR-3 ovarian
[34] = system: OVCAR-4 ovarian
[35] = system: OVCAR-5 ovarian
[36] = system: OVCAR-8 ovarian
[37] = system: PC-3 prostate
[38] = system: RXF 393 renal
[39] = system: SF-295 CNS
[40] = system: SK-MEL-2 melanoma
[41] = system: SK-MEL-28 melanoma
[42] = system: SK-MEL-5 melanoma
[43] = system: SK-OV-3 ovarian
[44] = system: SNB-19 CNS
[45] = system: SNB-75 CNS
[46] = system: SW-620 colon
[47] = system: T-47D breast
[48] = system: TK-10 renal
[49] = system: U251 CNS
[50] = system: UACC-257 melanoma
[51] = system: UACC-62 melanoma
[52] = system: UO-31 renal
[53] = system: RPMI-8226 leukemia
[54] = system: SF-268 CNS
[55] = system: SF-539 CNS
[56] = system: SN12C renal
[57] = system: NCI-H522 lung
[58] = system: SR leukemia

SMILES: COc1ccc(Cc2nc3cc([N+](=O)[O-])ccc3n2C[C@@H]2CCCN3CCCCC23)cc1 (some centres not stated)
- TGI [1]: 40 µM
- TGI [2]: 35.2 µM
- TGI [3]: 35 µM
- TGI [4]: > 100 µM
- TGI [5]: 37.5 µM
- TGI [6]: 45.3 µM
- TGI [7]: 29.2 µM
- TGI [8]: 27 µM
- TGI [9]: > 100 µM
- TGI [10]: 76.5 µM
- TGI [11]: 34.1 µM
- TGI [12]: 38.2 µM
- TGI [13]: 56.5 µM
- TGI [14]: 19 µM
- TGI [15]: 43.6 µM
- TGI [16]: 76.8 µM
- TGI [17]: 38.4 µM
- TGI [18]: 48.1 µM
- TGI [19]: 57.6 µM
- TGI [20]: 29.8 µM
- TGI [21]: 36.4 µM
- TGI [22]: 27.2 µM
- TGI [23]: 32.1 µM
- TGI [24]: > 100 µM
- TGI [25]: 43 µM
- TGI [26]: 38.1 µM
- TGI [27]: 33.8 µM
- TGI [28]: 60.1 µM
- TGI [29]: > 100 µM
- TGI [30]: 87.2 µM
- TGI [31]: > 100 µM
- TGI [32]: 60.6 µM
- TGI [33]: 41.1 µM
- TGI [34]: 61.3 µM
- TGI [35]: 82 µM
- TGI [36]: > 100 µM
- TGI [37]: > 100 µM
- TGI [38]: 39.8 µM
- TGI [39]: 35.8 µM
- TGI [40]: 33.2 µM
- TGI [41]: 35.1 µM
- TGI [42]: 27.9 µM
- TGI [43]: 46.4 µM
- TGI [44]: 84.8 µM
- TGI [45]: > 100 µM
- TGI [46]: 81.8 µM
- TGI [47]: > 100 µM
- TGI [48]: 92.8 µM
- TGI [49]: 50.6 µM
- TGI [50]: 31.5 µM
- TGI [51]: 31.3 µM
- TGI [52]: 21.1 µM

SMILES: CO/C(N)=C(\C#N)N=Cc1cccnc1
- TGI [1]: > 100 µM
- TGI [2]: > 100 µM
- TGI [3]: > 100 µM
- TGI [5]: > 100 µM
- TGI [6]: > 100 µM
- TGI [7]: > 100 µM
- TGI [8]: > 100 µM
- TGI [9]: > 100 µM
- TGI [10]: > 100 µM
- TGI [11]: > 100 µM
- TGI [12]: > 100 µM
- TGI [13]: > 100 µM
- TGI [14]: > 100 µM
- TGI [15]: > 100 µM
- TGI [16]: > 100 µM
- TGI [17]: > 100 µM
- TGI [18]: > 100 µM
- TGI [19]: > 100 µM
- TGI [20]: > 100 µM
- TGI [21]: > 100 µM
- TGI [22]: > 100 µM
- TGI [23]: > 100 µM
- TGI [24]: > 100 µM
- TGI [25]: > 100 µM
- TGI [26]: > 100 µM
- TGI [27]: > 100 µM
- TGI [28]: > 100 µM
- TGI [29]: > 100 µM
- TGI [30]: > 100 µM
- TGI [32]: > 100 µM
- TGI [33]: > 100 µM
- TGI [34]: > 100 µM
- TGI [35]: > 100 µM
- TGI [36]: > 100 µM
- TGI [37]: > 100 µM
- TGI [53]: > 100 µM
- TGI [38]: > 100 µM
- TGI [54]: > 100 µM
- TGI [39]: > 100 µM
- TGI [55]: > 100 µM
- TGI [40]: > 100 µM
- TGI [41]: > 100 µM
- TGI [42]: > 100 µM
- TGI [43]: > 100 µM
- TGI [56]: > 100 µM
- TGI [45]: > 100 µM
- TGI [46]: > 100 µM
- TGI [47]: > 100 µM
- TGI [48]: > 100 µM
- TGI [49]: > 100 µM
- TGI [50]: > 100 µM
- TGI [51]: > 100 µM

SMILES: CN1CCN(CCCCN2c3ccccc3Sc3ccc(C(=O)c4ccccc4)cc32)CC1
- TGI [2]: 3.12 µM
- TGI [3]: 3.55 µM
- TGI [4]: 3.06 µM
- TGI [5]: 3.04 µM
- TGI [6]: 2.75 µM
- TGI [8]: 3.28 µM
- TGI [9]: 6.73 µM
- TGI [10]: 15.5 µM
- TGI [11]: 2.94 µM
- TGI [12]: 3.29 µM
- TGI [13]: 3.06 µM
- TGI [14]: 3.66 µM
- TGI [15]: 3.16 µM
- TGI [16]: 4.68 µM
- TGI [17]: 2.6 µM
- TGI [18]: 3.19 µM
- TGI [19]: 2.79 µM
- TGI [20]: 2.49 µM
- TGI [21]: 3.22 µM
- TGI [22]: 3.32 µM
- TGI [23]: 7.3 µM
- TGI [24]: 3.65 µM
- TGI [25]: 3.38 µM
- TGI [26]: 3.24 µM
- TGI [27]: 2.92 µM
- TGI [28]: 3.43 µM
- TGI [29]: 3.7 µM
- TGI [30]: 3.71 µM
- TGI [57]: 3.44 µM
- TGI [33]: 3.71 µM
- TGI [34]: 6.13 µM
- TGI [35]: 7.43 µM
- TGI [36]: 2.97 µM
- TGI [37]: 2.83 µM
- TGI [38]: 2.57 µM
- TGI [54]: 13 µM
- TGI [39]: 3.45 µM
- TGI [55]: 3.41 µM
- TGI [40]: 3.41 µM
- TGI [41]: 2.85 µM
- TGI [42]: 3.08 µM
- TGI [43]: 2.94 µM
- TGI [56]: 3.19 µM
- TGI [44]: 3.45 µM
- TGI [45]: 2.58 µM
- TGI [58]: 4.61 µM
- TGI [46]: 3.2 µM
- TGI [47]: 45.4 µM
- TGI [48]: 3.11 µM
- TGI [49]: 3.09 µM
- TGI [50]: 3.36 µM
- TGI [51]: 2.52 µM
- TGI [52]: 6.27 µM
